Test results: patent publication US5541174A, “Analgesic method” (priority 1995, dated 1996)

Experiments:
[1] = test system: adjuvant-induced arthritic pain in rats; experiment: Adjuvant-induced arthritic pain; assay type: in vivo, male Sprague-Dawley rats
Source text: 2. Adjuvant-induced arthritic pain as described in:
S. KUZNA, et al., Measurement of Arthritic Pain and Effects of Analgesics in the Adjuvant-Treated Rat, Chem. Pharm. Bull. 23, 1184-1191 (1975);
C. A. WINTER, et al., Analgesic Activity of Diflunisal in Rats with Hyperalygesia Induced by Freud's Adjuvant, J. Pharmacol. Exp. Ther. 211, 678-685 (1979; and
M. E. ROSENTHALE, et al., Adjuvant Arthritis:Immuno-Pathological and Hyperalgesic Features, Fed. Proced. 41, 2577-2582 (1982),
incorporated by reference herein.
Groups of 5-6 male Sprague-Dawley rats (Taisho Pharmaceutical Co. Research Center) weighing 140 to 160 g at the time of Mycobacterium butyricum (adjuvant, Difco Laboratories, Detroit, Mich.) injection were used to study each compound. Rats were injected intradermally at the base of the tail with 0.1 ml of a parafin oil suspension of 0.5 mg of heat-killed mycobacterium. Fifteen to 19 days later, drugs were administered orally or subcutaneously in 0.5 ml of vehicle per 100 g of body weight to rats showing the nociceptive reaction, vocalization following a gentle flexion of the tarsal-tibial joint of the inflamed hind-paw. Vocalization responses were measured every hour for 5 hours. […] The ED50 value and 95% confidence limits were calculated from the positive rate for non-treated controls, vehicle-treated adjuvant arthritic rats, by the method of Litchfield and Wilcoxin.
All drugs were suspended with 5% gum arabic in saline solution or wetted with enough propylene glycol to give a final concentration of 4% propylene glycol and the wetted solid suspended in 1.4% polyvinyl alcohol in saline.

[2] = test system: acetic acid induced writhing in mice; experiment: Acetic acid-induced writhing test; assay type: in vivo, ICR male mice
Method: 1. Acetic acid-induced writhing test as described in Koster et al., "Acetic Acid for Analgesic Screening", Fed. Proc. 18, 412 (1959), incorporated by reference herein; and
Groups of 10 ICR male mice (Taisho Pharmaceutical Co. Research Center) were used to study each dose of every compound. Ligands or complexes were administered orally or subcutaneously in 0.1 ml of vehicle per 10 g of body weight 30 minutes before the intrapertioneal injection of 0.1 ml of 0.7% acetic acid solution per 10 g of body weight. Number of writhes were counted for each mouse during a period of 10 to 20 min after acetic acid injection. Inhibitory percent was calculated by comparison with the number of writhes in the non-treated control, vehicle-treated, and acetic acid-injected group. The ED50 value and 95% confidence limits were calculated from the inhibitory percent by the method of Litchfield and Wilcoxon.

[3] = oral, 5% gum arabic, 0.15 mmol/kg
[4] = oral, 5% gum arabic, 0.30 mmol/kg
[5] = oral, 5% gum arabic, 0.59 mmol/kg
[6] = oral, 5% gum arabic, 0.20 mmol/kg
[7] = oral, 5% gum arabic, 0.40 mmol/kg
[8] = oral, 5% gum arabic, 0.60 mmol/kg
[9] = oral, 5% gum arabic, 1.46 mmol/kg
[10] = oral, 5% gum arabic, 0.56 mmol/kg
[11] = oral, 5% gum arabic, 1.11 mmol/kg
[12] = oral, 5% gum arabic, 0.04 mmol/kg
[13] = oral, 5% gum arabic, 0.08 mmol/kg

(Salicylato)2n -(aqua)4n -copper(II)n [Cu(II)(salicylate)2]
analgesic effectiveness versus parent ligand ([1]; oral, 5% gum arabic): more effective than its parent ligand
ED50 ([1]; oral, 5% gum arabic in saline): 0.25 mmol/kg
% Inhibition [1, 3]: 27%
% Inhibition [1, 4]: 57%
% Inhibition [1, 5]: 73%
time course of analgesia ([1]; oral, 5% gum arabic, FIG. 1, 5 hours post-treatment): maintained or increased throughout the entire 5 hour post-treatment interval
analgesic effectiveness versus parent ligand ([1]; oral, PG-PVA): more effective than its parent ligand
ED50 ([1]; oral, PG-PVA in saline): 0.12 mmol/kg
% Inhibition ([1]; oral, PG-PVA, 0.15 mmol/kg): 30%
% Inhibition ([1]; oral, PG-PVA, 0.30 mmol/kg): 47%
% Inhibition ([1]; oral, PG-PVA, 0.59 mmol/kg): 90%
ED50 ([1]; s.c., PG-PVA in saline): 0.12 mmol/kg
% Inhibition ([1]; s.c., PG-PVA, 0.04 mmol/kg): 20%
% Inhibition ([1]; s.c., PG-PVA, 0.07 mmol/kg): 37%
% Inhibition ([1]; s.c., PG-PVA, 0.15 mmol/kg): 57%
ED50 ([2]; oral, 5% gum arabic in saline): 0.65 mmol/kg
analgesic effectiveness versus parent ligand ([2]; oral, 5% gum arabic in saline): more effective than their parent ligands
% Inhibition [2, 4]: 30%
% Inhibition [2, 5]: 43%
% Inhibition ([2]; oral, 5% gum arabic, 1.18 mmol/kg): 69%
analgesic effectiveness versus parent ligand ([2]; oral, PG-PVA): more effective than their parent ligands
ED50 ([2]; oral, PG-PVA in saline): 1.53 mmol/kg
% Inhibition ([2]; oral, PG-PVA, 0.30 mmol/kg): 20%
% Inhibition ([2]; oral, PG-PVA, 0.59 mmol/kg): 27%
% Inhibition ([2]; oral, PG-PVA, 1.18 mmol/kg): 46%
ED50 ([2]; s.c., PG-PVA in saline): 0.17 mmol/kg
% Inhibition ([2]; s.c., PG-PVA, 0.07 mmol/kg): 40%
% Inhibition ([2]; s.c., PG-PVA, 0.15 mmol/kg): 48%
% Inhibition ([2]; s.c., PG-PVA, 0.30 mmol/kg): 66%

CC(C)c1cc(C(=O)[O-])c(O)c(C(C)C)c1.CC(C)c1cc(C(=O)[O-])c(O)c(C(C)C)c1.[Cu+2] [Cu(II)(3,5-dips)2]
analgesic effectiveness versus parent ligand ([1]; oral, 5% gum arabic): essentially equipotent with its ligand
ED50 ([1]; oral, 5% gum arabic in saline): 0.43 mmol/kg
% Inhibition ([1]; oral, 5% gum arabic, 0.10 mmol/kg): 7%
% Inhibition [1, 6]: 20%
% Inhibition [1, 7]: 47%
analgesic effectiveness versus parent ligand ([1]; oral, PG-PVA): more effective than its parent ligand
ED50 ([1]; oral, PG-PVA in saline): > 0.40 mmol/kg
% Inhibition ([1]; oral, PG-PVA, 0.40 mmol/kg): 40%
ED50 ([1]; s.c., PG-PVA in saline): 0.12 mmol/kg
% Inhibition ([1]; s.c., PG-PVA, 0.05 mmol/kg): 23%
% Inhibition ([1]; s.c., PG-PVA, 0.10 mmol/kg): 37%
% Inhibition ([1]; s.c., PG-PVA, 0.20 mmol/kg): 70%
ED50 ([2]; oral, 5% gum arabic in saline): 0.40 mmol/kg
analgesic effectiveness versus parent ligand ([2]; oral, 5% gum arabic in saline): slightly less effective than its parent ligand
% Inhibition [2, 6]: 35%
% Inhibition [2, 7]: 48%
% Inhibition ([2]; oral, 5% gum arabic, 0.80 mmol/kg): 66%
analgesic effectiveness versus parent ligand ([2]; oral, PG-PVA): only as effective as its parent ligand
ED50 ([2]; oral, PG-PVA in saline): 0.43 mmol/kg
% Inhibition ([2]; oral, PG-PVA, 0.20 mmol/kg): 26%
% Inhibition ([2]; oral, PG-PVA, 0.40 mmol/kg): 56%
% Inhibition ([2]; oral, PG-PVA, 0.79 mmol/kg): 62%
ED50 ([2]; s.c., PG-PVA in saline): 0.20 mmol/kg
% Inhibition ([2]; s.c., PG-PVA, 0.10 mmol/kg): 27%
% Inhibition ([2]; s.c., PG-PVA, 0.20 mmol/kg): 45%
% Inhibition ([2]; s.c., PG-PVA, 0.40 mmol/kg): 74%

Nc1ccccc1C(=O)[O-].Nc1ccccc1C(=O)[O-].[Cu+2] [Cu(II)(anthranilate)2, Bisanthranilato(O,N)copper(II)]
analgesic effectiveness versus parent ligand ([1]; oral, 5% gum arabic): less effective than its parent ligand
ED50 ([1]; oral, 5% gum arabic in saline): > 0.60 mmol/kg
% Inhibition [1, 4]: 0%
% Inhibition [1, 8]: 10%
analgesic effectiveness versus parent ligand ([1]; oral, PG-PVA): less effective than its parent ligand
ED50 ([1]; oral, PG-PVA in saline): > 0.60 mmol/kg
% Inhibition ([1]; oral, PG-PVA, 0.60 mmol/kg): 17%
ED50 ([1]; s.c., PG-PVA in saline): 0.19 mmol/kg
% Inhibition ([1]; s.c., PG-PVA, 0.07 mmol/kg): 20%
% Inhibition ([1]; s.c., PG-PVA, 0.15 mmol/kg): 43%
% Inhibition ([1]; s.c., PG-PVA, 0.30 mmol/kg): 63%
ED50 ([2]; oral, 5% gum arabic in saline): 0.50 mmol/kg
analgesic effectiveness versus parent ligand ([2]; oral, 5% gum arabic in saline): more effective than their parent ligands
% Inhibition [2, 3]: 25%
% Inhibition [2, 4]: 47%
% Inhibition [2, 8]: 50%
analgesic effectiveness versus parent ligand ([2]; oral, PG-PVA): more effective than their parent ligands
ED50 ([2]; oral, PG-PVA in saline): > 0.89 mmol/kg
ED50 ([2]; s.c., PG-PVA in saline): 0.22 mmol/kg
% Inhibition ([2]; s.c., PG-PVA, 0.07 mmol/kg): 30%
% Inhibition ([2]; s.c., PG-PVA, 0.15 mmol/kg): 42%
% Inhibition ([2]; s.c., PG-PVA, 0.30 mmol/kg): 57%

Nc1ccccc1C(=O)O [Anthranilic acid, reference compound]
ED50 ([1]; oral, 5% gum arabic in saline): 0.83 mmol/kg
% Inhibition ([1]; oral, 5% gum arabic, 0.36 mmol/kg): 23%
% Inhibition ([1]; oral, 5% gum arabic, 0.73 mmol/kg): 41%
% Inhibition [1, 9]: 73%
ED50 ([1]; oral, PG-PVA in saline): > 1.44 mmol/kg
% Inhibition ([1]; oral, PG-PVA, 1.46 mmol/kg): 37%
ED50 ([2]; oral, 5% gum arabic in saline): > 1.46 mmol/kg
% Inhibition [2, 9]: 18%
ED50 ([2]; oral, PG-PVA in saline): > 2.19 mmol/kg
% Inhibition ([2]; oral, PG-PVA, 2.19 mmol/kg): 45%
ED50 ([2]; s.c., PG-PVA in saline): 0.64 mmol/kg
% Inhibition ([2]; s.c., PG-PVA, 0.27 mmol/kg): 30%
% Inhibition ([2]; s.c., PG-PVA, 0.55 mmol/kg): 36%
% Inhibition ([2]; s.c., PG-PVA, 1.09 mmol/kg): 71%

Cu(II)2 (acetate)4
analgesic activity ([1]; doses statistically significantly analgesic in the writhing model): devoid of analgesic activity
ED50 ([1]; oral, PG-PVA in saline): > 0.83 mmol/kg
% Inhibition ([1]; oral, PG-PVA, 0.83 mmol/kg): 0%
ED50 ([1]; s.c., PG-PVA in saline): > 0.83 mmol/kg
% Inhibition ([1]; s.c., PG-PVA, 0.83 mmol/kg): 3%
ED50 ([2]; s.c., PG-PVA in saline): 0.32 mmol/kg
% Inhibition ([2]; s.c., PG-PVA, 0.21 mmol/kg): 42%
% Inhibition ([2]; s.c., PG-PVA, 0.41 mmol/kg): 59%
% Inhibition ([2]; s.c., PG-PVA, 0.83 mmol/kg): 61%
effectiveness versus other compounds ([2]; writhing model, Tables I and II): more effective than anthranilic acid, salicylic acid, and aspirin

CC(=O)Oc1ccccc1C(=O)O [Aspirin, acetylsalicylic acid, reference compound]
ED50 ([1]; oral, 5% gum arabic in saline): 0.62 mmol/kg
% Inhibition ([1]; oral, 5% gum arabic, 0.28 mmol/kg): 27%
% Inhibition [1, 10]: 43%
% Inhibition [1, 11]: 70%
ED50 ([1]; oral, PG-PVA in saline): 1.41 mmol/kg
% Inhibition ([1]; oral, PG-PVA, 0.56 mmol/kg): 30%
% Inhibition ([1]; oral, PG-PVA, 1.11 mmol/kg): 40%
% Inhibition ([1]; oral, PG-PVA, 2.22 mmol/kg): 63%
ED50 ([2]; oral, 5% gum arabic in saline): 1.30 mmol/kg
% Inhibition [2, 10]: 29%
% Inhibition [2, 11]: 42%
% Inhibition ([2]; oral, 5% gum arabic, 2.22 mmol/kg): 66%
ED50 ([2]; oral, PG-PVA in saline): 0.48 mmol/kg
% Inhibition ([2]; oral, PG-PVA, 0.21 mmol/kg): 32%
% Inhibition ([2]; oral, PG-PVA, 0.42 mmol/kg): 41%
% Inhibition ([2]; oral, PG-PVA, 0.84 mmol/kg): 67%
ED50 ([2]; s.c., PG-PVA in saline): 0.52 mmol/kg
% Inhibition ([2]; s.c., PG-PVA, 0.28 mmol/kg): 28%
% Inhibition ([2]; s.c., PG-PVA, 0.56 mmol/kg): 57%
% Inhibition ([2]; s.c., PG-PVA, 1.11 mmol/kg): 71%

[2[3(trifluoromethyl)phenyl]aminonicotinato]2n -(aqua)n -copper(II)n [Cu(II)2 (niflumate)4]
analgesic effectiveness versus parent ligand ([1]; oral, 5% gum arabic): more effective than their parent ligand
ED50 ([1]; oral, 5% gum arabic in saline): 0.18 mmol/kg
% Inhibition [1, 12]: 7%
% Inhibition [1, 13]: 13%
ED50 ([1]; oral, PG-PVA in saline): > 0.16 mmol/kg
ED50 ([1]; s.c., PG-PVA in saline): 0.03 mmol/kg
% Inhibition ([1]; s.c., PG-PVA, 0.01 mmol/kg): 17%
% Inhibition ([1]; s.c., PG-PVA, 0.02 mmol/kg): 50%
% Inhibition ([1]; s.c., PG-PVA, 0.04 mmol/kg): 60%
ED50 ([2]; oral, 5% gum arabic in saline): 0.09 mmol/kg
analgesic effectiveness versus parent ligand ([2]; oral, 5% gum arabic in saline): more effective than their parent ligands
% Inhibition [2, 12]: 37%
% Inhibition [2, 13]: 48%
analgesic effectiveness versus parent ligand ([2]; oral, PG-PVA): more effective than their parent ligands
ED50 ([2]; oral, PG-PVA in saline): 0.10 mmol/kg
% Inhibition ([2]; oral, PG-PVA, 0.06 mmol/kg): 33%
% Inhibition ([2]; oral, PG-PVA, 0.12 mmol/kg): 57%
% Inhibition ([2]; oral, PG-PVA, 0.24 mmol/kg): 73%
ED50 ([2]; s.c., PG-PVA in saline): 0.02 mmol/kg
% Inhibition ([2]; s.c., PG-PVA, 0.01 mmol/kg): 37%
% Inhibition ([2]; s.c., PG-PVA, 0.02 mmol/kg): 48%
% Inhibition ([2]; s.c., PG-PVA, 0.04 mmol/kg): 58%
